# Assay results published in US20120225132A1, “Methods for Increasing the Kinetic Activity of Alcohol, Water and Other Liquids, so as to Render the Liquids More Capable of Enhancing the Alternative Cellular Energy Pathway in the Prevention and Therapy of Diseases” (priority 2011, published 2012).
# Tested on: ACE pathway
# Test: Clinical evaluation of ethanol solutions (with neutral red dye and UV illumination) by the parent of an autistic child
# Format: in vivo
# Conditions: standardized protocol
smiles,measurement,value
"CCO [unprocessed ethanol, ethanol]",clinical response of the child with autism as judged by the parent,still effective
